Columns and labels:
[1] = Dispersion stability of 10% dispersion: resveratrol content, upper part vs after mixing; format: physicochemical; settings: aqueous dispersion; likely much less using similar dispersion conditions
Experimental: The powder (2.5 g) was dispersed in deionized water (47.5 g) with stirring. The dispersion was centrifuged at 3000 rpm for 5 minutes (Sigma Centrifuge 6-10, Sigma Laborzentrifugen GmbH, Germany) to remove the un-dispersible material. The supernatant was lyophilized to yield 1.7 g powder. The powder (1 g) was suspended in deionized water (9 g) to give a 10% homogenous dispersion. A sample of the dispersion was placed in a test tube and stored at room temperature for 3 hours and then at 5° C. for 1 day. A small sample was taken from the upper part of the test tube and then a sample was taken after mixing. […] The results indicated the dispersion stability. The highly concentrate dispersion can be conveniently used for various applications in pharmaceuticals and cosmetics, food and feed, especially in beverages.
A dispersion of more than 0.005% (likely much less using similar dispersion conditions) of non-complexed resveratrol would result in precipitation of resveratrol.

[2] = Storage stability: resveratrol in supernatant of aqueous dispersions (UV method); format: physicochemical
Experimental: Resveratrol-caseinate complex used was the oven-dried material described in Example 8 (non-dispersible material was not removed by centrifugation). Crystalline resveratrol was included for comparison.
Complexed and crystalline resveratrol was dispersed in deionized water of pH 6.8 or 3.0 to give a final target dispersion concentration of 60 and 80 ppm. The desired pH was achieved by pH adjustment using dilute HCl or NaHCO3 The samples were heated in a water bath till 80° C. and then held at 80° C. for 1 minute. The samples were stored in the dark at 25° C. and 5° C. During storage, resveratrol recrystallized and precipitated in some samples. The resveratrol concentration in the supernatant were determined by a UV method and the results are shown below, […]

[3] = target 60 ppm, pH 3.0, stored in the dark at 5 C.
[4] = target 60 ppm, pH 3.0, stored in the dark at 25 C.
[5] = target 60 ppm, pH 6.8, stored in the dark at 5 C.
[6] = target 60 ppm, pH 6.8, stored in the dark at 25 C.
[7] = target 80 ppm, pH 3.0, stored in the dark at 5 C.
[8] = target 80 ppm, pH 3.0, stored in the dark at 25 C.
[9] = target 80 ppm, pH 6.8, stored in the dark at 5 C.
[10] = target 80 ppm, pH 6.8, stored in the dark at 25 C.

Oc1ccc(C=Cc2cc(O)cc(O)c2)cc1 [Resveratrol, 3,4′,5-trihydroxystilbene]
dispersion concentration that would result in precipitation of resveratrol [1]: more than 0.005%
Resveratrol in supernatant, Initial ([2]; target 60 ppm, pH 3.0, 5 C.): 58 ppm
Resveratrol in supernatant, Initial ([2]; target 60 ppm, pH 3.0, 25 C.): 58 ppm
Resveratrol in supernatant, 1 week [2, 3]: 28 ppm
Resveratrol in supernatant, 1 week (% in parentheses) [2, 3]: 48%
Resveratrol in supernatant, 2.4 week [2, 3]: 19 ppm
Resveratrol in supernatant, 2.4 week (% in parentheses) [2, 3]: 33%
Resveratrol in supernatant, 1 week [2, 4]: 43 ppm
Resveratrol in supernatant, 1 week (% in parentheses) [2, 4]: 74%
Resveratrol in supernatant, 2.4 week [2, 4]: 39 ppm
Resveratrol in supernatant, 2.4 week (% in parentheses) [2, 4]: 67%
Resveratrol in supernatant, Initial ([2]; target 60 ppm, pH 6.8, 5 C.): 60 ppm
Resveratrol in supernatant, Initial ([2]; target 60 ppm, pH 6.8, 25 C.): 60 ppm
Resveratrol in supernatant, 1 week [2, 5]: 23 ppm
Resveratrol in supernatant, 1 week (% in parentheses) [2, 5]: 38%
Resveratrol in supernatant, 2.4 week [2, 5]: 17 ppm
Resveratrol in supernatant, 2.4 week (% in parentheses) [2, 5]: 28%
Resveratrol in supernatant, 1 week [2, 6]: 45 ppm
Resveratrol in supernatant, 1 week (% in parentheses) [2, 6]: 75%
Resveratrol in supernatant, 2.4 week [2, 6]: 39 ppm
Resveratrol in supernatant, 2.4 week (% in parentheses) [2, 6]: 65%
Resveratrol in supernatant, Initial ([2]; target 80 ppm, pH 3.0, 5 C.): 80 ppm
Resveratrol in supernatant, Initial ([2]; target 80 ppm, pH 3.0, 25 C.): 80 ppm
Resveratrol in supernatant, 1 week [2, 7]: 28 ppm
Resveratrol in supernatant, 1 week (% in parentheses) [2, 7]: 35%
Resveratrol in supernatant, 2.4 week [2, 7]: 16 ppm
Resveratrol in supernatant, 2.4 week (% in parentheses) [2, 7]: 20%
Resveratrol in supernatant, 1 week [2, 8]: 47 ppm
Resveratrol in supernatant, 1 week (% in parentheses) [2, 8]: 59%
Resveratrol in supernatant, 2.4 week [2, 8]: 38 ppm
Resveratrol in supernatant, 2.4 week (% in parentheses) [2, 8]: 48%
Resveratrol in supernatant, Initial ([2]; target 80 ppm, pH 6.8, 5 C.): 79 ppm
Resveratrol in supernatant, Initial ([2]; target 80 ppm, pH 6.8, 25 C.): 79 ppm
Resveratrol in supernatant, 1 week [2, 9]: 24 ppm
Resveratrol in supernatant, 1 week (% in parentheses) [2, 9]: 30%
Resveratrol in supernatant, 2.4 week [2, 9]: 16 ppm
Resveratrol in supernatant, 2.4 week (% in parentheses) [2, 9]: 20%
Resveratrol in supernatant, 1 week [2, 10]: 45 ppm
Resveratrol in supernatant, 1 week (% in parentheses) [2, 10]: 57%
Resveratrol in supernatant, 2.4 week [2, 10]: 43 ppm
Resveratrol in supernatant, 2.4 week (% in parentheses) [2, 10]: 54%

— patent US8642736B2, “Casein complexes” (DSM IP Assets B. V., priority 2006, dated 2014)
